The target in data set [1] is Human immunodeficiency virus type 1 protease (Human immunodeficiency virus 1, UniProt Q72874). Kind of data set: Tested for inhibitory activity against HIV protease.
The subject of data set [2] is Lymphocytoid cell line. The data set can be described thus: Tested for cytotoxicity (concentration required to reduce 50% of the viable cell population) in presence of metabolizable tetrazolium dye in human lymphocytoid cell lines MT-2 or MT-4 using the RF strain of HIV-1. Format: functional. Particulars: read-out: TC50 (the source's name).
Data set [3] relates to Lymphocytoid cell line. The data set can be described thus: Tested for the ability to inhibit viral replication (HIV-1 RNA) in human lymphocytoid cell lines MT-2 or MT-4 using the RF strain of HIV-1. It counts as functional.
Data set [4] has as its system Human immunodeficiency virus 1. Kind of data set: Tested for the ability to block cleavage of HIV-1 gag polyprotein using [35S]methionine-labeled ligand. It counts as functional, organism-based.
Data set [5] is described as follows: Cmax in plasma was determined upon peroral administration of 10.0 mg/Kg dose in rat. Also noted: dose 10 mg/Kg, route oral. Particulars: po. Format: ADME, organism-based.
Data set [6] can be described thus: Tested for systemic clearance upon intravenous administration of 5.0 mg/Kg dose in rat. Format: ADME, organism-based. Particulars: in vivo.
Data set [7] is described as follows: Tested for volume of distribution at steady state upon intravenous administration of 5.0 mg/Kg dose in rat. Format: ADME, organism-based. To be noted: in vivo, read-out: Vss.
A short description of data set [8]: Tested for t1/2 upon intravenous administration of 5.0 mg/Kg dose in rat. Format: ADME, organism-based. Particulars: in vivo.
Data set [9] deals with Human immunodeficiency virus. The data set can be described thus: Ability to inhibit p24 mutant variant HxB2 wild type was determined. It counts as functional. To be noted: Human immunodeficiency virus 1.
Data set [10] in a line: tmax upon peroral administration of 10.0 mg/Kg dose in dog. Format: ADME, organism-based, Canis lupus familiaris. Particulars: in vivo, po.
Data set [11] relates to Human immunodeficiency virus. Kind of data set: Ability to inhibit p24 mutant variant V82F/[…] was determined. Format: functional. To be noted: Human immunodeficiency virus 1.
Data set [12] in a line: Tested for systemic clearance upon intravenous administration of 5.0 mg/Kg dose in dog. Format: ADME, organism-based, Canis lupus familiaris. Particulars: in vivo.
Data set [13] can be described thus: Bioavailability in dog (dose 10.0 mg/kg p.o.). Format: ADME, organism-based, Canis lupus familiaris. Particulars: in vivo, po.
Data set [14] can be described thus: Tested for t1/2 upon peroral administration of 10.0 mg/Kg dose in dog. To be noted: in vivo, po. Format: ADME, organism-based, Canis lupus familiaris.
Data set [15] can be described thus: Tested for t1/2 upon intravenous administration of 5.0 mg/Kg dose in dog. It counts as ADME, organism-based, Canis lupus familiaris. Particulars: in vivo.
Data set [16] concerns Human immunodeficiency virus. The data set can be described thus: Ability to inhibit p24 mutant variant V82F was determined. It counts as functional. To be noted: Human immunodeficiency virus 1.
A short description of data set [17]: Cmax in plasma was determined upon peroral administration of 10.0 mg/Kg dose in dog. Format: ADME, organism-based, Canis lupus familiaris. The arrangement: dose 10 mg/Kg, route oral. To be noted: po.
Data set [18] is described as follows: Tested for t1/2 upon peroral administration of 10.0 mg/Kg dose in rat. It counts as ADME, organism-based. Particulars: in vivo, po.
Data set [19] has as its system Human immunodeficiency virus. Kind of data set: Ability to inhibit p24 mutant variant […] was determined. To be noted: Human immunodeficiency virus 1. It counts as functional.
A short description of data set [20]: Tested for volume of distribution at steady state upon intravenous administration of 5.0 mg/Kg dose in dog. It counts as ADME, organism-based, Canis lupus familiaris. Particulars: in vivo, read-out: Vss.
A short description of data set [21]: tmax upon peroral administration of 10.0 mg/Kg dose in rat. It counts as ADME, organism-based. To be noted: in vivo, po.
Data set [22] can be described thus: Bioavailability upon peroral administration of 10.0 mg/Kg dose in rat. To be noted: in vivo, po, read-out: Bioavailabiility. It counts as ADME, organism-based.

The values below come from ChEMBL document CHEMBL1128104, “A bis-[N-3-(1-hydroxy-1-methyl-ethyl)-benzyl)-cyclic urea as a HIV protease inhibitor” (Bioorg Med Chem Lett, 1995).

On to `CC(C)(O)c1ccc(CN2C(=O)N(Cc3ccc(C(C)(C)O)cc3)[C@H](Cc3ccccc3)[C@H](O)[C@@H](O)[C@H]2Cc2ccccc2)cc1`, for which the inhibitory constant (Ki) in [1] is 2.2 nM. Moreover, the CC50 with Lymphocytoid cell line [2] turned out to be 39.3 µM. In the data set on Lymphocytoid cell line [3], this compound registered an IC90 of 8040 nM.
In data set [4], `O=C1N(Cc2cccc(CO)c2)[C@H](Cc2ccccc2)[C@H](O)[C@@H](O)[C@@H](Cc2ccccc2)N1Cc1cccc(CO)c1` returned an IC50 of 7.9 nM. Moreover, in [5], the maximum concentration (Cmax) is 470 ng/mL. In addition, the clearance in data set [6] is 103 mL/min/kg. Besides, the Vd in data set [7] stood at 9.8 L/kg. The same compound gave a half-life in data set [8] of 66 min. In [1], this compound yielded an inhibitory constant (Ki) of 0.4 nM. Also, the CC50 in the data set on Lymphocytoid cell line [2] stood at 54.7 µM. The same compound gave an IC90 in the data set with Lymphocytoid cell line [3] of 38.8 nM.
As to `CC(C)(O)c1cccc(CN2C(=O)N(Cc3cccc(C(C)(C)O)c3)[C@H](Cc3ccccc3)[C@H](O)[C@@H](O)[C@H]2Cc2ccccc2)c1`, the IC90 in [9] turned out to be 22.2 nM; in data set [11], 5.78 µM; in data set [16], 84.3 nM; in the data set on Lymphocytoid cell line [3], 33.7 nM; in data set [19] it was 72.2 nM. For the same compound, in data set [10], the Tmax was 25.2 min. Moreover, in data set [4], inhibition was half-maximal at 15 nM (IC50). The clearance in data set [12] is 15.5 mL/min/kg; in data set [6] it was 31.8 mL/min/kg. Also, the highest concentration (Cmax) is 630 ng/mL in data set [5] and 240 ng/mL in data set [17]. This compound had a bioavailability in data set [13] below 4%. Further, the half-life is 39 min in [14], 72 min in data set [15], 61.8 min in data set [8] and 90 min in data set [18]. The Vd in [7] was found to be 3.04 L/kg; in [20], 1.65 L/kg. The inhibitory constant (Ki) in [1] turned out to be 0.067 nM. For the same compound, the CC50 with Lymphocytoid cell line [2] was found to be 33.4 µM.
In the case of `O=C1N(Cc2ccc(CO)cc2)[C@H](Cc2ccccc2)[C@H](O)[C@@H](O)[C@@H](Cc2ccccc2)N1Cc1ccc(CO)cc1` [DMP-323], the concentration for an effect of 90% (IC90) was 95.6 nM in data set [9]; 22 µM in data set [11]; 675 nM in [16]; 176 nM in the data set with Lymphocytoid cell line [3]; 989 nM in data set [19]. For the same compound, the results for the Tmax in data set [10] and in data set [21] were 30 min and 15 min, respectively. Also, the concentration for half-maximal inhibition (IC50) in data set [4] came to 35.7 nM. Also, the clearance in data set [12] is 24.7 mL/min/kg; in [6], 119 mL/min/kg. Also, the figures for the Cmax in data set [5] and in data set [17] were 450 ng/mL and 1480 ng/mL, respectively. Besides, the bioavailability is 38.4% in data set [13] and 27.1% in data set [22]. For the same compound, the half-life in data set [14] is 64.8 min; in [15] it was 108 min; in data set [8], 57 min; in data set [18] it was 90 min. In addition, the Vd in [7] was 6.36 L/kg; in data set [20], 2.28 L/kg. In addition, the inhibition constant Ki in data set [1] was 0.31 nM. Moreover, in the data set with Lymphocytoid cell line [2], the CC50 is 67.5 µM.

As usually defined, the Ki is the dissociation constant of the complex between target and ligand, obtained from inhibition or displacement. Low values mean higher affinity, high ones lower affinity. In general, IC90 refers to the concentration needed for an effect of 90%. Lower therefore signals an effect from little substance. The IC50 is the concentration at which inhibition is half-maximal. Lower therefore signals inhibition by little substance. For orientation: Cmax means the maximum level reached in the sampled fluid or tissue. The term clearance denotes the volume of plasma or blood freed of the substance per unit of time. What is called half-life is how long it takes for the measured level to halve. Higher therefore signals slow loss. By Tmax is commonly meant the time from dosing to the highest level.
